Consider 6 molecules from patent publication US20090047306A1, “ADJUVANT COMPOSITIONS” (priority 2004, published 2009).

Experiment [1] deals with α-mannosidase. The note with it: cited from earlier work.
In experiment [2] the test system is glycosidase. As to conditions: cited from earlier work.
The test system of experiment [3] is α-glucosidase. The note with it: cited from earlier work.
In experiment [4] the test system is influenza vaccine-specific IgG, IgG1 and IgG2a. Also on record: species or system Balb/c mice. As to conditions: mouse, in vivo.
In experiment [5] the test system is OVA-specific IgG1 and IgG2a. Briefly: OVA-specific IgG1 and IgG2a plasma antibody titres (ELISA) after immunization with OVA/alum with or without alkaloid. The experiment is classed as in vivo, mice (BALB/c). As to the method: Alhydrogel (alum; purchased from Superfos BioSector a/s, Vedbaek, Denmark) was mixed with a predetermined quantity of highly purified ovalbumin (OVA; Worthington Biochemical Corporation, Lakewood, N.J.) with or without 3,7-diepi-casuarine.
(§1) All mice (BALB/c) were immunized subcutaneously into the foodpad with 100 μg OVA in 50 μl phosphate-buffered saline (PBS) mixed with alum and either PBS (control) or 3,7-diepi-casuarine (50 μg in PBS). Boosting inoculations were performed in the same fashion 2 weeks later, into the contralateral footpad.
Blood samples (tail bleeds) were taken 3 weeks after the primary inoculation. Enzyme-linked immunosorbent assays (ELISA) were performed as described in Brewer et al. (1999) J Immunol 163:6448-54 to detect OVA-specific IgG1 and IgG2a in plasma. Results were expressed as end-point dilutions where the end-point is determined as the final plasma dilution, which yields a higher absorbance than a negative control plasma sample, included in the assay.

Experiment [6] relates to Murine interferon-γ (IFN-γ). Briefly: IFN-γ production by spleen cells of inoculated mice re-stimulated with OVA in vitro (ELISA). The experiment is classed as cell-based, mice (BALB/c). The note with it: cells from mice inoculated with alum/OVA plus 50 μg compound vs alum/OVA alone (control); FIG. 2. As for the experimental part:
as §1
The mouse spleen was removed aseptically and placed in a sterile petri dish containing 5 mls of complete medium (RPMI, 1% L-Glutamine, 1% Penicillin/Streptomycin and 10% foetal calf serum). Cells suspensions were prepared by using the end of a syringe and grinding the spleen through a wire mesh. The cell suspension was then centrifuged at 1000 rpm for 5 minutes. To remove the erythrocytes, the cell pellet was resuspended in Boyle's solution (Tris 0.17M & Ammonium Chloride 0.16M) and centrifuged again for 5 minutes. The pellet was then washed in medium a further two times, then resuspended in 3 ml medium. A cell count was then carried out. Stimulation assays were performed in triplicate in U-bottomed 96-well plates (Corning Costar, N.Y.) with OVA (at 5 μg/ml, 100 μg/ml and 500 μg/ml).
Murine interferon-γ (IFN-γ) was assayed by ELISA using paired antibodies according to the manufacturer's instructions.
On the technique in general: In an ELISA, binding on a coated surface is turned into a signal by an enzyme label.

Experiment [7] concerns alum-induced Th1/Th2 response. Briefly: Effect of exogenous rIL-12 on alum-induced Th1/Th2 responses (Example 1 repeated, lymph node cultures). The experiment is classed as in vivo, mice (BALB/c). As to conditions: 1 μg rIL-12 in place of 3,7-diepi-casuarine; IFN-γ on lymph node cultures. As for the experimental part:
The experiment described in Example 1 (above) was repeated, but with the 3,7-diepi-casuarine replaced with 1 μg of rIL-12 (R&D Systems, Oxford, UK). Proliferative response assays of IFN-γ were performed on lymph node cultures rather than spleen cells (as described in Pollock et al. (2003) Immunology 108:137-143).

`O[C@H]1[C@H]2[C@H](O)CCCN2C[C@H]1O` [swainsonine]: the “inhibition of α-mannosidase” value in experiment [1] is “potent and specific inhibitor”.
Turning to `O[C@H]1[C@H]2[C@@H](O)CCN2C[C@H]1O` [compound 8], the “glycosidase inhibitory activity relative to swainsonine” value in experiment [2] is reported as “much weaker inhibitory activity”.
Take `O[C@H]1[C@H]2[C@H](O)CCN2C[C@H]1O` [compound 7, (1S, 2R, 7R, 7aR)-1,2,7-trihydroxy]: the “glycosidase inhibitory activity relative to swainsonine” value in experiment [2] is given as “much weaker inhibitory activity”.
As for `O[C@H]1[C@H](O)[C@@H](O)CN2CC[C@H](O)[C@H]12` [castanospermine], the “inhibition of α-glucosidase” value in experiment [3] was “potent”.
For `OC[C@H]1[C@@H](O)[C@H](O)[C@H]2[C@@H](O)[C@@H](O)CN21` [3,7-diepi-casuarine, (1R,2R,3S,6S,7R,7aR)-3-(hydroxymethyl)-1,2,6,7-tetrahydroxypyrrolizidine], in experiment [4], the adjuvant activity result was “exhibits adjuvant activity”, the “dose response of the antibody responses” value is given as “No dose response”, the “influenza vaccine-specific IgG1 response vs control group vaccinated with influenza vaccine alone” value was “statistically significant increased” and the “influenza vaccine-specific IgG2a response vs control group A” value is reported as “No differences”. Further, in experiment [4], the “influenza vaccine-specific IgGtotal response vs control group A” value is recorded as “statistically significant increased” and the “skewing of the Th1/Th2 response from Th2 towards Th1” value is “No skewing”. Moreover, the “shift of the alum-induced Th2 response towards Th1” value in experiment [5] (50 μg in admixture with alum/OVA, vs alum/OVA alone) is “pronounced shift towards a Th1 response”. Besides, the “antigen-specific (OVA) IgG2a in plasma” value in experiment [5] (BALB/c mice, s.c. footpad, 100 μg OVA with alum, with or without 50 μg 3,7-diepi-casuarine, bleed at 3 weeks, FIG. 1b) was “significant increase”. In addition, the “IFN-γ produced by spleen cells re-stimulated with antigen in vitro” value in experiment [6] is reported as “significantly greater amount”.

B1: rIL-12: rIL-12 (R&D Systems, Oxford, UK), recombinant interleukin-12 (protein, UniProt P29459 23-219; P29460 23-328, looked up)
Interleukin-12 subunit alpha: RNLPVATPDPGMFPCLHHSQNLLRAVSNMLQKARQTLEFYPCTSEEIDHEDITKDKTSTVEACLPLELTKNESCLNSRETSFITNGSCLASRKTSFMMALCLSSIYEDLKMYQVEFKTMNAKLLMDPKRQIFLDQNMLAVIDELMQALNFNSETVPQKSSLEEPDFYKTKIKLCILLHAFRIRAVTIDRVMSYLNAS
Interleukin-12 subunit beta: IWELKKDVYVVELDWYPDAPGEMVVLTCDTPEEDGITWTLDQSSEVLGSGKTLTIQVKEFGDAGQYTCHKGGEVLSHSLLLLHKKEDGIWSTDILKDQKEPKNKTFLRCEAKNYSGRFTCWWLTTISTDLTFSVKSSRGSSDPQGVTCGAATLSAERVRGDNKEYEYSVECQEDSACPAAEESLPIEVMVDAVHKLKYENYTSSFFIRDIIKPDPPKNLQLKPLKNSRQVEVSWEYPDTWSTPHSYFSLTFCVQVQGKSKREKKDRVFTDKTSATVICRKNASISVRAQDRYYSSSWSEWASVPCS
Consider B1, for which the “effect on the alum-induced Th1/Th2 response” value in experiment [7] is recorded as “comparable effect to 3,7-diepi-casuarine”.
